Common to all, as to assay: NCI tumour cell line growth inhibition, 48 h
Test [1] concerns A498 renal.
Test [2] has as its system HOP-62 NSCLC.
Test [3] relates to HT29 colon.
The subject of test [4] is OVCAR-4 ovarian.
Test [5] concerns PC-3 prostate.
Test [6] concerns RXF 393 renal.
The test system of test [7] is SK-OV-3 ovarian.
In test [8] the test system is SN12C renal.
In test [9] the test system is TK-10 renal.
The test system of test [10] is UACC-62 melanoma.

Values joined by “and” are separate entries in the source; they are usually repeats but may differ in a detail not shown here. Equal entries are not always repeated.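 In this assay, cells in 96-well plates receive the compound at five concentrations for 48 hours. Endpoints are linearly interpolated between the surrounding concentrations. Here, GI50 denotes the concentration required for 50% inhibition of growth. At the TGI there is no net growth.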

Among the data in PubChem BioAssay (NCI) are GI50 and TGI values, retold here.

For `CNC(=O)c1cc(Oc2ccc3nc(NC(=O)Nc4ccc(CN5CCOCC5)c(C(F)(F)F)c4)sc3c2)ccn1`, the GI50 is 1.9 µM in test [1]; 2.82 µM in [2]; 2.14 µM in test [3]; 1.72 µM in [4]; 2.04 µM in [5]; 1.81 µM in [6]. Moreover, the GI50 was 2.18 µM in test [7], 2.58 µM in test [8], 4.45 µM in test [9] and 1.44 µM in test [10]. In addition, the TGI was 4.05 µM in test [1]; 10.1 µM in test [2]; 5.5 µM in test [3]; 5.64 µM in test [4]; 6.22 µM in [5]; 4.03 µM in test [6]. The TGI in [7] was determined as 4.81 µM; in test [8], 9.36 µM; in test [9] it was 14.7 µM; in test [10], 4.58 µM.

As to `O=C(O)C1C2C=CC(O2)C1C(=O)NCc1cccnc1` (stereo not given), the TGI in test [1], in test [2], in test [3], in [4], in test [5] and in test [6] was more than 100 µM throughout. Besides, the TGI in test [7], in test [8], in [9] and in test [10] was more than 100 µM throughout.

In the case of `COc1cc2c(Oc3ccc(NC(=O)C4(C(=O)Nc5ccc(F)cc5)CC4)cc3F)ccnc2cc1OCCCN1CCOCC1`, the GI50 in test [1] is < 0.0462 µM and 0.383 µM; in [2] it was 0.798 µM and 0.573 µM; in [3], 0.387 µM; in test [4] it was 0.747 µM and 2.56 µM; in test [5] it was 1.9 µM and 1.23 µM; in test [6], 0.468 µM and 0.661 µM. The GI50 is 1.81 µM and 1.88 µM in [7]; 0.266 µM and 0.259 µM in [8]; 1.03 µM and 1.36 µM in [9]; 1.24 µM and 0.891 µM in test [10]. Besides, the TGI in test [1] was 1.24 µM and 1.7 µM; in test [2] it was 2.17 µM and 4.15 µM; in test [3], 1.8 µM; in test [4] it was 13.2 µM and > 10 µM; in [5], 14.5 µM and > 10 µM; in test [6], 1.77 µM and 1.9 µM. In addition, the TGI in test [7] was 3.94 µM and 5.53 µM; in test [8], 13.3 µM and > 10 µM; in test [9], 2.57 µM and 4.42 µM; in test [10], 2.72 µM and 2.48 µM.

Consider `CC[C@@]1(O)C(=O)OCc2c1cc1n(c2=O)Cc2cc3cc(Cl)ccc3nc2-1`, for which the GI50 is 0.00878 µM and 0.0517 µM in test [1]; less than 0.001 µM in test [2]; 0.0269 µM and 0.0187 µM in [3]; 0.125 µM and 0.249 µM in test [4]; 0.0427 µM in test [5]; 0.0106 µM in test [6]. The GI50 in test [7] is 0.0152 µM; in [8], 0.00207 µM; in test [9] it was 2.58 µM and 1.87 µM; in test [10], 0.00183 µM. The TGI in test [1] was 0.132 µM and 0.221 µM; in test [3], 0.203 µM; in test [6] it was 0.137 µM; in test [7] it was 39.9 µM; in [8], 0.12 µM and 0.243 µM; in test [9], more than 100 µM.

In the case of `O=CC(OC(=O)c1ccccc1)C(OC(=O)c1ccccc1)C(COC(c1ccccc1)(c1ccccc1)c1ccccc1)OC(=O)c1ccccc1` (stereo not given), the GI50 in test [1] is 15.5 µM; in test [2], 18.3 µM; in [3], 11.7 µM; in test [4], 17.5 µM; in test [5], 9.64 µM; in test [6] it was 4.11 µM. The GI50 in test [7] is 21.3 µM; in test [8], 17.4 µM; in [9], 20.4 µM; in [10], 14.5 µM. The TGI was found to be 29.7 µM in test [1]; 32.6 µM in [2]; 26.3 µM in test [3]; 47.1 µM in [4]; 24.7 µM in test [5]; 21.1 µM in test [6]. In addition, the TGI in [7] was found to be 48.2 µM; in test [8], 47.9 µM; in test [9], 50.3 µM; in [10] it was 44.1 µM.

Consider `O=C(COc1ccc(/C=C2\Oc3ccc4ccccc4c3C2=O)cc1)c1ccc([N+](=O)[O-])cc1`, for which the GI50 in test [1] was 41.5 µM; in [2], 26.7 µM; in test [3], 9.05 µM; in test [4] it was 2.14 µM; in test [5], 9.36 µM; in test [6], 8.55 µM. The GI50 in test [7] is 24.2 µM; in [8] it was 10.5 µM; in test [9], 16.6 µM; in test [10], 11.9 µM. Besides, the TGI is more than 100 µM in [1]; 61.6 µM in [2]; 24 µM in test [3]; 8.87 µM in test [4]; 21.3 µM in [5]; 60.5 µM in [6]. For the same compound, the TGI worked out at 73.7 µM in test [7], 30.7 µM in [8], 49.3 µM in test [9] and 25.9 µM in [10].

Consider `CC(=O)N[C@H](C)[C@@H](O)[C@@H](C)[C@@H]1OC(=O)/C=C/C=C(C)\C=C\[C@]2(C)C[C@@H](NS(C)(=O)=O)C=C[C@@H]2/C=C(C)/C=C/[C@H]1C`, for which the GI50 is 0.0068 µM and 0.0121 µM in test [1]; 0.0103 µM and 0.0205 µM in [2]; 0.00459 µM and 0.00435 µM in test [3]; 25.2 µM in test [4]; 0.00714 µM and 0.0129 µM in test [5]; 0.00352 µM and 0.00846 µM in test [6]. Also, the GI50 in test [7] is 0.00446 µM and 0.00599 µM; in test [8], 0.00723 µM and 0.0129 µM; in test [9] it was 0.045 µM and 0.276 µM; in [10], 0.00725 µM and 0.0278 µM. Further, the TGI in test [2] was more than 43.5 µM; in test [3], more than 43.5 µM; in test [4], more than 43.5 µM; in [5] it was more than 43.5 µM; in [6], 31.1 µM; in test [7], 0.0397 µM. The TGI in test [8], in test [9] and in test [10] was more than 43.5 µM throughout.

For the compound `O=C1/C(=C/c2cccnc2)SC(=S)N1Cc1ccco1`, the TGI in test [1] is 70.6 µM; in test [2] it was 27.1 µM; in [3] it was more than 100 µM; in test [4], 77.6 µM; in [5] it was more than 36.6 µM; in test [6], 24.2 µM. Further, the TGI in test [7] was more than 75.9 µM; in test [8] it was 45 µM; in test [9] it was 10.8 µM; in [10], more than 82.3 µM.
